Results from US20230340011A1 (Asteroid Therapeutics, priority 2022, published 2023).

biological target: SREBP-2 (Homo sapiens (Human), UniProt Q12772); assay: In vitro assay SREBP-2: PathHunter U2OS SREBP-2 Nuclear Translocation Cell Line, U18666A-stimulated; format: cell-based; details: PathHunter U2OS SREBP-2 nuclear translocation cells, U18666A 10 μM, overnight (16 hours)

SMILES | IC50
C[C@H](CCC(=O)N1CCN(c2ncccn2)CC1)[C@H]1CC[C@H]2[C@@H]3CC=C4C[C@@H](O)CC[C@]4(C)[C@H]3CC[C@]12C [Example 397, (R)-4-((3S,8S,9S,10R,13R,14S,17R)-3-hydroxy-10,13-dimethyl-2,3,4,7,8,9,10,11,12,13,14,15,16,17-tetradecahydro-1H-cyclopenta[a]phenanthren-17-yl)-1-(4-(pyrimidin-2-yl)piperazin-1-yl)pentan-1-one] | < 250 nM
C[C@H](CCC(=O)N1CCC[C@H](Oc2ccncc2)C1)[C@H]1CC[C@H]2[C@@H]3CC=C4C[C@@H](O)CC[C@]4(C)[C@H]3CC[C@]12C [Example 520, (R)-4-((3S,8S,9S,10R,13R,14S,17R)-3-hydroxy-10,13-dimethyl-2,3,4,7,8,9,10,11,12,13,14,15,16,17-tetradecahydro-1H-cyclopenta[a]phenanthren-17-yl)-1-((S)-3-(pyridin-4-yloxy)piperidin-1-yl)pentan-1-one] | < 250 nM
C[C@H](CCC(=O)N1CCC[C@H](Oc2cnn(C)c2)C1)[C@H]1CC[C@H]2[C@@H]3CC=C4C[C@@H](O)CC[C@]4(C)[C@H]3CC[C@]12C [Example 517, (4R)-4-[(1R,3aS,3bS,7S,9aR,9bS,11aR)-7-hydroxy-9a,11a-dimethyl-1H,2H,3H,3aH,3bH,4H,6H,7H,8H,9H,9aH,9bH,10H,11H,11aH-cyclopenta[a]phenanthren-1-yl]-1-[(3S)-3-[(1-methyl-1H-pyrazol-4-yl)oxy]piperidin-1-yl]pentan-1-one] | < 250 nM
COC(=O)N1CCN(C(=O)CC[C@@H](C)[C@H]2CC[C@H]3[C@@H]4CC=C5C[C@](O)(C(F)(F)F)CC[C@]5(C)[C@H]4CC[C@]23C)CC1 [Example 419, Methyl 4-((R)-4-((3S,8S,9S,10R,13R,14S,17R)-3-hydroxy-10,13-dimethyl-3-(trifluoromethyl)-2,3,4,7,8,9,10,11,12,13,14,15,16,17-tetradecahydro-1H-cyclopenta[a]phenanthren-17-yl)pentanoyl)piperazine-1-carboxylate] | 1000 to 10000 nM
Cc1cncc(O[C@@H](C)[C@H]2CC[C@H]3[C@@H]4CC=C5C[C@@H](O)CC[C@]5(C)[C@H]4CC[C@]23C)c1 [Example 272, (3S,8S,9S,10R,13S,14S,17S)-10,13-dimethyl-17-((S)-1-((5-methylpyridin-3-yl)oxy)ethyl)-2,3,4,7,8,9,10,11,12,13,14,15,16,17-tetradecahydro-1H-cyclopenta[a]phenanthren-3-ol] | < 250 nM
C[C@H](CCC(=O)N1CCCC(c2ccncc2)C1)[C@H]1CC[C@H]2[C@@H]3CC=C4C[C@@H](O)CC[C@]4(C)[C@H]3CC[C@]12C (stereo partly drawn) [Example 346, (4R)-4-((3S,8S,9S,10R,13R,14S,17R)-3-hydroxy-10,13-dimethyl-2,3,4,7,8,9,10,11,12,13,14,15,16,17-tetradecahydro-1H-cyclopenta[a]phenanthren-17-yl)-1-(3-(pyridin-4-yl)piperidin-1-yl)pentan-1-one] | < 250 nM
Cc1noc(C(=O)N[C@H]2CCN(C(=O)CC[C@@H](C)[C@H]3CC[C@H]4[C@@H]5CC=C6C[C@@H](O)CC[C@]6(C)[C@H]5CC[C@]34C)C2)n1 [Example 527, N—((S)-1-((R)-4-((3S,8S,9S,10R,13R,14S,17R)-3-hydroxy-10,13-dimethyl-2,3,4,7,8,9,10,11,12,13,14,15,16,17-tetradecahydro-1H-cyclopenta[a]phenanthren-17-yl)pentanoyl)pyrrolidin-3-yl)-3-methyl-1,2,4-oxadiazole-5-carboxamide] | < 250 nM
Cc1cncc(O[C@@H](C)[C@H]2CC[C@H]3[C@@H]4CC=C5C[C@@H](O)CC[C@]5(C)[C@H]4CC[C@]23C)c1 [Example 432, (3S,8S,9S,10R,13S,14S,17S)-10,13-dimethyl-17-((S)-1-((5-methylpyridin-3-yl)oxy)ethyl)-2,3,4,7,8,9,10,11,12,13,14,15,16,17-tetradecahydro-1H-cyclopenta[a]phenanthren-3-ol] | < 250 nM
C[C@H](CCC(=O)N1CC[C@H](C(=O)N(C)C)C1)[C@H]1CC[C@H]2[C@@H]3CC=C4C[C@@H](O)CC[C@]4(C)[C@H]3CC[C@]12C [Example 537, (S)-1-((R)-4-((3S,8S,9S,10R,13R,14S,17R)-3-hydroxy-10,13-dimethyl-2,3,4,7,8,9,10,11,12,13,14,15,16,17-tetradecahydro-1H-cyclopenta[a]phenanthren-17-yl)pentanoyl)-N,N-dimethylpyrrolidine-3-carboxamide] | 250 to 1000 nM
Cc1noc(C2CCN(C(=O)CC[C@@H](C)[C@H]3CC[C@H]4[C@@H]5CC=C6C[C@@H](O)CC[C@]6(C)[C@H]5CC[C@]34C)CC2)n1 [Example 505, (R)-4-((3S,8S,9S,10R,13R,14S,17R)-3-hydroxy-10,13-dimethyl-2,3,4,7,8,9,10,11,12,13,14,15,16,17-tetradecahydro-1H-cyclopenta[a]phenanthren-17-yl)-1-(4-(3-methyl-1,2,4-oxadiazol-5-yl)piperidin-1-yl)pentan-1-one] | < 250 nM
C[C@H](CC[C@](O)(C1CC1)C(F)(F)F)[C@H]1CC[C@H]2[C@@H]3CC=C4C[C@@](C)(O)CC[C@]4(C)[C@H]3CC[C@]12C [Example 368, (3S,8S,9S,10R,13R,14S,17R)-17-((2R,5S)-5-cyclopropyl-6,6,6-trifluoro-5-hydroxyhexan-2-yl)-3,10,13-trimethyl-2,3,4,7,8,9,10,11,12,13,14,15,16,17-tetradecahydro-1H-cyclopenta[a]phenanthren-3-ol] | 250 to 1000 nM
CNC(=O)c1ccncc1O[C@@H](C)[C@H]1CC[C@H]2[C@@H]3CC=C4C[C@@H](O)CC[C@]4(C)[C@H]3CC[C@]12C [Example 265, 3-((S)-1-((3S,8S,9S,10R,13S,14S,17S)-3-hydroxy-10,13-dimethyl-2,3,4,7,8,9,10,11,12,13,14,15,16,17-tetradecahydro-1H-cyclopenta[a]phenanthren-17-yl)ethoxy)-N-methylisonicotinamide] | 1000 to 10000 nM
CNC(=O)c1cncc(O[C@@H](C)[C@H]2CC[C@H]3[C@@H]4CC=C5C[C@@H](O)CC[C@]5(C)[C@H]4CC[C@]23C)c1 [Example 266, 5-((S)-1-((3S,8S,9S,10R,13S,14S,17S)-3-hydroxy-10,13-dimethyl-2,3,4,7,8,9,10,11,12,13,14,15,16,17-tetradecahydro-1H-cyclopenta[a]phenanthren-17-yl)ethoxy)-N-methylnicotinamide] | 250 to 1000 nM
CON(C(=O)CC[C@@H](C)[C@H]1CC[C@H]2[C@@H]3CC=C4C[C@@H](O)CC[C@]4(C)[C@H]3CC[C@]12C)C1CC1 [Example 36, (R)—N-cyclopropyl-4-((3S,8S,9S,10R,13R,14S,17R)-3-hydroxy-10,13-dimethyl-2,3,4,7,8,9,10,11,12,13,14,15,16,17-tetradecahydro-1H-cyclopenta[a]phenanthren-17-yl)-N-methoxypentanamide] | 250 to 1000 nM
C[C@H](CCC(=O)N1CC[C@H](NS(C)(=O)=O)C1)[C@H]1CC[C@H]2[C@@H]3CC=C4C[C@@H](O)CC[C@]4(C)[C@H]3CC[C@]12C [Example 535, N—((S)-1-((R)-4-((3S,8S,9S,10R,13R,14S,17R)-3-hydroxy-10,13-dimethyl-2,3,4,7,8,9,10,11,12,13,14,15,16,17-tetradecahydro-1H-cyclopenta[a]phenanthren-17-yl)pentanoyl)pyrrolidin-3-yl)methanesulfonamide] | 250 to 1000 nM
C[C@H](CCC(=O)N(C)Cc1ccccn1)[C@H]1CC[C@H]2[C@@H]3CC=C4C[C@@H](O)CC[C@]4(C)[C@H]3CC[C@]12C [Example 542, (4R)-4-[(1R,3aS,3bS,7S,9aR,9bS,11aR)-7-hydroxy-9a,11a-dimethyl-1H,2H,3H,3aH,3bH,4H,6H,7H,8H,9H,9aH,9bH,10H,11H,11aH-cyclopenta[a]phenanthren-1-yl]-N-methyl-N— [(pyridin-2-yl)methyl]pentanamide] | 250 to 1000 nM
C[C@H](CCC(=O)N1CCC(O)(c2ccncc2)CC1)[C@H]1CC[C@H]2[C@@H]3CC=C4C[C@@H](O)CC[C@]4(C)[C@H]3CC[C@]12C [Example 344, (R)-4-((3S,8S,9S,10R,13R,14S,17R)-3-hydroxy-10,13-dimethyl-2,3,4,7,8,9,10,11,12,13,14,15,16,17-tetradecahydro-1H-cyclopenta[a]phenanthren-17-yl)-1-(4-hydroxy-4-(pyridin-4-yl)piperidin-1-yl)pentan-1-one] | < 250 nM
C=CCN1C[C@H]2CON(C(=O)CC[C@@H](C)[C@H]3CC[C@H]4[C@@H]5CC=C6C[C@@H](O)CC[C@]6(C)[C@H]5CC[C@]34C)[C@H]2C1 [Example 45, (R)-1-((3aR,6aR)-5-allylhexahydro-1H-pyrrolo[3,4-c]isoxazol-1-yl)-4-((3S,8S,9S,10R,13R,14S,17R)-3-hydroxy-10,13-dimethyl-2,3,4,7,8,9,10,11,12,13,14,15,16,17-tetradecahydro-1H-cyclopenta[a]phenanthren-17-yl)pentan-1-one] | 250 to 1000 nM
Cc1cccnc1CC[C@@H](C)[C@H]1CC[C@H]2[C@@H]3CC=C4C[C@@H](O)CC[C@]4(C)[C@H]3CC[C@]12C [Example 130, (3S,8S,9S,10R,13R,14S,17R)-10,13-dimethyl-17-((R)-4-(3-methylpyridin-2-yl)butan-2-yl)-2,3,4,7,8,9,10,11,12,13,14,15,16,17-tetradecahydro-1H-cyclopenta[a]phenanthren-3-ol] | < 250 nM
CNC(=O)c1cccnc1OC[C@@H](C)[C@H]1CC[C@H]2[C@@H]3CC=C4C[C@@H](O)CC[C@]4(C)[C@H]3CC[C@]12C [Example 451, 2-((S)-2-((3S,8S,9S,10R,13S,14S,17R)-3-hydroxy-10,13-dimethyl-2,3,4,7,8,9,10,11,12,13,14,15,16,17-tetradecahydro-1H-cyclopenta[a]phenanthren-17-yl)propoxy)-N-methylnicotinamide] | < 250 nM
